Here are results for 1 substance from patent publication EP0511903B1, “Conjugate of calcitonin and polyethylene glycol” (TEVA PHARMACEUTICAL INDUSTRIES LTD., priority 1991, dated 1998).

This experiment deals with 2 anticorps monoclonaux reconnaissant 2 épitopes différents sur la calcitonine humaine. Put plainly: Immunoradiometric assay (IRMA) for human calcitonin using 2 monoclonal antibodies. The note with it: IRMA with 2 monoclonal antibodies. The class given is binding. The source says: Un conjugué de polyéthylène glycol aminé couplé sur l'acide aspartique de la calcitonine humaine a été synthétisé suivant la méthode décrite à l'exemple 2. On dispose d'un dosage immunoradiométrique pour la Calcitonine humaine, utilisant 2 anticorps monoclonaux reconnaissant 2 épitopes différents sur la calcitonine humaine. Par ce dosage, le dérivé PEG-NH2-CTH n'est plus reconnu qu'à 0.4 % par rapport à la calcitonine humaine. Ceci signifie qu'au moins un épitope de la calcitonine humaine se trouve masqué par le couplage en position 15 d'une molécule de PEG. Il y a donc une modification de l'antigénicité de la calcitonine, de par son couplage au PEG, qui diminue fortement sa reconnaissance par des anticorps.

Ends that are not written are not given here. amino‑PEG = not defined here

“PEG NH2-CThumaine: conjugué de polyéthylène glycol aminé couplé sur l'acide aspartique (position 15) de la calcitonine humaine (CGNLSTCMLGTYTQD(amino‑PEG)FNKFHTFPQTAIGVGAP; ends and bridges not checked; UniProt P01258 85-116, looked up)”: the “reconnaissance par rapport à la calcitonine humaine” value was found to be 0.4%.
